Experimental findings from patent publication US20080293696A1, “2-Aminoarylcarboxamides Useful as Cancer Chemotherapeutic Agents” (Bayer Pharmaceuticals Corporation, priority 2004, published 2008) are described below.

The test system of the first experiment is PAKT/PKB (p-(S473) AKT) in H209 small cell lung carcinoma cells stimulated with Stem Cell Factor. The experiment can be described thus: PAKT/PKB Cytoblot Assay with H209 cells (SCF-stimulated p-(S473) AKT). In kind it is cell-based. The conditions noted are these: Homo sapiens, NCI-H209, compound 1 hour, SCF 25 ng/mL 5 minutes, group: between 500 nM and 1 μM (units in value). The procedure, abridged: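 H209 SCLC cells kept overnight in RPMI with 0.1% BSA were pretreated 1 h at 37 °C with compound (0.01–10 μM final), then stimulated with SCF 25 ng/mL for 5 min. After formaldehyde/methanol fixation, p-(S473) AKT was detected in-cell with HRP secondary and ECL chemiluminescence, and IC50 was derived.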
Regarding `CCN1CCCC1CNC(=O)c1cc(CNc2ccccc2C(=O)Nc2ccc3c(c2)OC(F)(F)O3)ccn1` (stereo not shown) [Example 84, 4-{[(2-{[(2,2-difluoro-1,3-benzodioxol-5-yl)amino]carbonyl}phenyl)amino]methyl}-N-[(1-ethylpyrrolidin-2-yl)methyl]pyridine-2-carboxamide], the IC50 (as a rule, the concentration needed to halve the response being measured) was in the range of 500 to 1000 nM.

For `CN(C)C(=O)c1cc(CNc2ccccc2C(=O)Nc2ccc3c(c2)OC(F)(F)O3)ccn1` [Example 80, 4-{[(2-{[(2,2-Difluoro-1,3-benzodioxol-5-yl)amino]carbonyl}phenyl)amino]methyl}-N,N-dimethylpyridine-2-carboxamide], the IC50 fell in the range of 500 to 1000 nM.

`O=C(Nc1ccc2c(c1)OC(F)(F)O2)c1ccccc1NCc1ccnc(NCCc2ccccc2)c1` [Example 150, N-(2,2-difluoro-1,3-benzodioxol-5-yl)-2-[({2-[(2-phenylethyl)amino]pyridin-4-yl}methyl)amino]benzamidetrifluoroacetate] gave an IC50 of 500 to 1000 nM.

Staying with this experiment, now noted: Homo sapiens, NCI-H209, compound 1 hour, SCF 25 ng/mL 5 minutes, group: between 1 and 3 μM.
The compound `O=C(Nc1ccc2c(c1)OC(F)(F)O2)c1cc(F)ccc1NCc1ccnc(C2=NCCN2)c1` [Example 41, N-(2,2-difluoro-1,3-benzodioxol-5-yl)-2-({[2-(4,5-dihydro-1H-imidazol-2-yl)pyridin-4-yl]methyl}amino)-5-fluorobenzamide] came in with an IC50 of 1000 to 3000 nM. Still for that read-out and setting: under `CN(C)C(=O)c1cc(CNc2ccc(F)cc2C(=O)Nc2ccc3c(c2)OC(F)(F)O3)ccn1` [Example 42, 4-{[(2-{[(2,2-difluoro-1,3-benzodioxol-5-yl)amino]carbonyl}-4-fluorophenyl)amino]methyl}-N,N-dimethylpyridine-2-carboxamide] stands 1000 to 3000 nM.

The same experiment, now with this note: Homo sapiens, NCI-H209, compound 1 hour, SCF 25 ng/mL 5 minutes, group: less than 500 nM.
Consider `CCCOCCCNC(=O)c1cc(CNc2ccccc2C(=O)Nc2ccc3c(c2)OC(F)(F)O3)ccn1` [Example 124, 4-{[(2-{[(2,2-difluoro-1,3-benzodioxol-5-yl)amino]carbonyl}phenyl)amino]methyl}-N-(3-propoxypropyl)pyridine-2-carboxamide], for which the IC50 was < 500 nM.

On to `N#Cc1cc(CNc2ccccc2C(=O)Nc2ccc3c(c2)OC(F)(F)O3)ccn1` [Example 25, 2-{[(2-cyanopyridin-4-yl)methyl]amino}-N-(2,2-difluoro-1,3-benzodioxol-5-yl)benzamide], for which the IC50 was < 500 nM. The same measure, in the same setting: under `O=C(Nc1ccc2c(c1)OC(F)(F)C(F)(F)O2)c1ncccc1NCc1ccncc1` [Example 17, 3-[(Pyridin-4-ylmethyl)amino]-N-(2,2,3,3-tetrafluoro-2,3-dihydro-1,4-benzodioxin-6-yl)pyridine-2-carboxamide] stands < 500 nM; under `COCC(=O)Nc1cc(CNc2ccccc2C(=O)Nc2ccc3c(c2)OC(F)(F)O3)ccn1` [Example 155, N-(2,2-difluoro-1,3-benzodioxol-5-yl)-2-[({2-[(methoxyacetyl)amino]pyridin-4-yl}methyl)amino]benzamide], < 500 nM. The same measure, in the same setting: under `N#Cc1cc(CNc2cc(F)ccc2C(=O)Nc2ccc3c(c2)OC(F)(F)O3)ccn1` [Example 29, 2-{[(2-cyanopyridin-4-yl)methyl]amino}-N-(2,2-difluoro-1,3-benzodioxol-5-yl)-4-fluorobenzamide] stands < 500 nM.
